Seven compounds from PubChem BioAssay (NCI) can be followed below.

Structures are written as SMILES.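 A five-concentration, 48-hour dose response in 96-well plates underlies each endpoint, interpolated linearly between surrounding concentrations. TGI: concentration producing complete growth inhibition.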 Where a SMILES comes first, the peptide text is derived from it. The star is where a group is joined. Boc = CC(C)(C)OC(=O)*

Test systems include 786-0 renal; A549 NSCLC; BT-549 breast; CCRF-CEM leukemia; DU-145 prostate; HL-60(TB) leukemia; IGROV1 ovarian; KM12 colon; MALME-3M melanoma; MCF7 breast; MDA-MB-231 breast; MDA-MB-435; NCI-H226 lung; NCI-H460 lung; OVCAR-5 ovarian; OVCAR-8 ovarian; SF-539 CNS; SK-MEL-28 melanoma; SN12C renal; A498 renal.
Holding throughout (experiment): NCI-60 cell line screen, 48 h

`CC1C(=O)C23OC[C@@]1(C)C1(O)CC[C@@H](C)[C@]21CC3=O` (stereo partly drawn): the TGI in the assay on 786-0 renal, with A549 NSCLC, with BT-549 breast, in the assay on CCRF-CEM leukemia, with DU-145 prostate and with HL-60(TB) leukemia was above 100 µM throughout. Besides, the TGI in the assay with IGROV1 ovarian, in the assay with KM12 colon, in the assay with MALME-3M melanoma, with MCF7 breast, in the assay with MDA-MB-231 breast and with MDA-MB-435 was above 100 µM each time. For the same compound, the TGI with NCI-H226 lung, in the assay with NCI-H460 lung, in the assay with OVCAR-5 ovarian, with OVCAR-8 ovarian, with SF-539 CNS and with SK-MEL-28 melanoma was above 100 µM throughout. Moreover, in the assay with SN12C renal, the TGI is above 100 µM.

For the compound `CCOC(=O)C(CC(C)C)NC(=O)C(Cc1ccccc1)NC(=O)CNC(=O)OC(C)(C)C` (stereo not drawn) (Boc-Gly-Phe-Leu-OEt; configuration not given here), the TGI is 36.9 µM with 786-0 renal; 49.6 µM with A498 renal; 44.1 µM in the assay on A549 NSCLC; 50.9 µM with BT-549 breast; 41.3 µM in the assay with CCRF-CEM leukemia; 43.6 µM with DU-145 prostate. For the same compound, the TGI came out at 9.88 µM with HL-60(TB) leukemia; 49 µM in the assay with IGROV1 ovarian; 37.5 µM in the assay on KM12 colon; 39.4 µM with MALME-3M melanoma; 17.3 µM in the assay on MCF7 breast; 34.4 µM with MDA-MB-435. In addition, the TGI turned out to be 41 µM with NCI-H226 lung; 26.6 µM in the assay with NCI-H460 lung; 46 µM with OVCAR-8 ovarian; 28.5 µM in the assay on SF-539 CNS; 31.5 µM in the assay on SK-MEL-28 melanoma; 35.4 µM in the assay with SN12C renal.

Regarding `O=C(N/C(=C/c1ccc(Cl)cc1)c1nc2ccccc2c(=O)n1Nc1ccc([N+](=O)[O-])cc1[N+](=O)[O-])c1ccccc1`, the TGI in the assay with 786-0 renal, in the assay with A549 NSCLC, with BT-549 breast, with CCRF-CEM leukemia, in the assay with IGROV1 ovarian and in the assay on KM12 colon was above 100 µM in each case. Further, the TGI in the assay on MALME-3M melanoma, in the assay with MCF7 breast, with MDA-MB-231 breast, in the assay on MDA-MB-435, in the assay on NCI-H226 lung and in the assay on NCI-H460 lung was above 100 µM throughout. Besides, the TGI with OVCAR-5 ovarian, in the assay with OVCAR-8 ovarian, in the assay on SF-539 CNS, with SK-MEL-28 melanoma and with SN12C renal was above 100 µM each time.

For `COP(=O)(C(/C=C/c1ccccc1)OC(C)=O)[C@@H]1CCCC[C@H]1N(CC(C)(C)C)C(C)=O` (stereo partly drawn), the TGI in the assay with 786-0 renal is 35.8 µM; in the assay on A549 NSCLC, 47.3 µM; in the assay on BT-549 breast, 33 µM; with CCRF-CEM leukemia, 67.2 µM; in the assay with DU-145 prostate, 32.5 µM; in the assay with HL-60(TB) leukemia, 41.3 µM. Moreover, the TGI is 24.1 µM with IGROV1 ovarian; above 100 µM with KM12 colon; 33.4 µM in the assay on MALME-3M melanoma; above 100 µM in the assay on MCF7 breast; 31.6 µM in the assay on MDA-MB-231 breast; 36.2 µM in the assay on MDA-MB-435. Further, the TGI in the assay with NCI-H226 lung was 27 µM; in the assay on NCI-H460 lung, 28.6 µM; in the assay with OVCAR-5 ovarian, 78.9 µM; in the assay with OVCAR-8 ovarian, 35.6 µM; in the assay with SF-539 CNS, 33.4 µM; in the assay on SK-MEL-28 melanoma, 53.1 µM. In the assay with SN12C renal, the TGI was 30.2 µM.

As to `CC1(C)O[C@@H](CP(c2ccccc2)c2ccccc2)[C@H](CP(c2ccccc2)c2ccccc2)O1`, the TGI in the assay on 786-0 renal was 22.8 µM; with A498 renal, 39.1 µM; in the assay on A549 NSCLC, 85.7 µM; in the assay with BT-549 breast, 9.02 µM; with CCRF-CEM leukemia, above 100 µM; in the assay on DU-145 prostate, above 100 µM. The TGI in the assay on IGROV1 ovarian is 16.5 µM; with KM12 colon it was 54.7 µM; in the assay with MALME-3M melanoma it was 20.9 µM; in the assay on MDA-MB-231 breast, 31.9 µM; in the assay on MDA-MB-435, 52.4 µM; in the assay on NCI-H226 lung it was 51.1 µM. Further, the TGI is above 100 µM with NCI-H460 lung; 54.7 µM in the assay on OVCAR-5 ovarian; 20.5 µM with OVCAR-8 ovarian; 21.1 µM in the assay with SF-539 CNS; 28 µM in the assay with SK-MEL-28 melanoma; 18.7 µM in the assay with SN12C renal.

Regarding `CC1(C)S[C@@H]2[C@H](NC(=O)/C=C/c3ccccc3)C(=O)N2[C@H]1C(=O)O`, the TGI with 786-0 renal, in the assay with A549 NSCLC, in the assay with BT-549 breast, in the assay on CCRF-CEM leukemia, in the assay on DU-145 prostate and in the assay with HL-60(TB) leukemia was above 100 µM each time. The TGI in the assay on IGROV1 ovarian, in the assay with KM12 colon, with MALME-3M melanoma, in the assay on MCF7 breast, with MDA-MB-231 breast and in the assay on MDA-MB-435 was above 100 µM in each case. Also, the TGI in the assay with NCI-H226 lung, in the assay with NCI-H460 lung, in the assay on OVCAR-5 ovarian, with OVCAR-8 ovarian, in the assay with SF-539 CNS and with SK-MEL-28 melanoma was above 100 µM in each case. Besides, the TGI in the assay with SN12C renal was above 100 µM.

With `Cc1cc(Br)cc(C)c1NC(=O)C(=O)C1C(=O)C(CC2C(=O)c3ccccc3C2=O)C(=O)CC1(C)C` (stereo not drawn), the TGI is above 100 µM in the assay with 786-0 renal; above 100 µM in the assay on A549 NSCLC; above 100 µM in the assay on BT-549 breast; 95.7 µM in the assay with CCRF-CEM leukemia; above 100 µM with DU-145 prostate; above 100 µM in the assay on HL-60(TB) leukemia. Moreover, the TGI in the assay with IGROV1 ovarian, in the assay with KM12 colon, in the assay on MCF7 breast, in the assay with MDA-MB-231 breast, with MDA-MB-435 and in the assay on NCI-H226 lung was above 100 µM each time. The TGI in the assay on NCI-H460 lung, in the assay on OVCAR-5 ovarian, in the assay on OVCAR-8 ovarian, with SF-539 CNS, with SK-MEL-28 melanoma and with SN12C renal was above 100 µM each time.
